From patent publication US4569926A, “Stimulation of phagocytosis with somatostatin” (Brigham and Women's Hospital, priority 1983, dated 1986)

Legend:
[1] = in vivo; cited from earlier work
Kupffer cells = experiment: light microscopic examination of liver sections for carbon particles; format: in vivo, rat; conditions: periportal areas, 24 minutes after carbon
Method: (§1) All of the experiments were performed in female Spraque-Dawley rats (ESS Laboratories, Lynnfield, Mass.) with an initial body weight of 150-180 g, and with unlimited access to Purina laboratory chow and tap water. Control and experimental groups consisted of 3-4 rats. Each experiment was repeated at least twice and the results were pooled. Linear or cyclic somatostatin (Serono) was injected under mild ether anesthesia at 10, 50, 100 or 250 μg in 0.5 ml of saline into the jugular vein once daily for 4 consecutive days in the dose-response study (FIG. 1). Control animals were injected with the same amount of saline. In the time-response study, 0, 1, 2, 3 or 4 daily doses of somatostatin, 50 μg, were injected i.v. (FIG. 2). In the comparative experiments, somatostatin, 250 μg, i.v., was given as in the first study, and standard doses of zymosan (Sigma 2,500 μg/100 g i.v.; twice, 48 and 24 hr before colloidal carbon) and the reticuloendothelial system (RES) blocker gadolinium chloride (Sigma; 500 μg/100 g i.v.; once, 24 hour prior to india ink) were administered to additional groups of rats (FIG. 3). […] A piece of liver was digested in concentrated mineral acid, and, following organic extraction, the concentration of carbon, as in blood hemolysates, was measured spectrophotometrically at 660 nm using the method of Takahashi and Matsuoka (J. Toxicol. Sci., S., 1 (1980).

[2] = in vivo; cited from earlier work; remark: listed apart in the source
Kupffer cells and RES [3] = experiment: colloidal carbon clearance from the blood (phagocytic index K); format: in vivo, rat; conditions: for clearing potency order by change in K caused by 100 μg of treatment (ΔK/100 μg): crude comparison, rank order
Method: All of the experiments were performed in female Spraque-Dawley rats (ESS Laboratories, Lynnfield, Mass.) with an initial body weight of 150-180 g, and with unlimited access to Purina laboratory chow and tap water. Control and experimental groups consisted of 3-4 rats. Each experiment was repeated at least twice and the results were pooled. Linear or cyclic somatostatin (Serono) was injected under mild ether anesthesia at 10, 50, 100 or 250 μg in 0.5 ml of saline into the jugular vein once daily for 4 consecutive days in the dose-response study (FIG. 1). Control animals were injected with the same amount of saline. In the time-response study, 0, 1, 2, 3 or 4 daily doses of somatostatin, 50 μg, were injected i.v. (FIG. 2). In the comparative experiments, somatostatin, 250 μg, i.v., was given as in the first study, and standard doses of zymosan (Sigma 2,500 μg/100 g i.v.; twice, 48 and 24 hr before colloidal carbon) and the reticuloendothelial system (RES) blocker gadolinium chloride (Sigma; 500 μg/100 g i.v.; once, 24 hour prior to india ink) were administered to additional groups of rats (FIG. 3). In all of the experiments, 0.1 ml/100 g of the supernatant of centrifuged (3000 rpm/15 min) colloidal carbon (Wagner's india ink) was injected i.v. under mild ether anesthesia. Blood samples (50 μl ) were obtained with heparinized glass capillaries and by puncture of the retro-orbital venous plexus at 3, 6, 12 and 24 minutes after the administration of carbon. The blood samples were lysed in 2 ml of 0.1% Na2 CO3 solution. After 24 minutes, the rats were killed, and the livers were perfused through the portal vein with 20 ml saline to remove trapped blood. Samples of liver, spleen, lung and kidney were fixed in 10% formalin and subsequently processed for light microscopy. A piece of liver was digested in concentrated mineral acid, and, following organic extraction, the concentration of carbon, as in blood hemolysates, was measured spectrophotometrically at 660 nm using the method of Takahashi and Matsuoka (J. Toxicol. Sci., S., 1 (1980).
The phagocytic index or K value was calculated as described by others (Takahashi and Matsuoka, ibid; Biozzi et al, J. Exp. Pathol., 34, 441 (1953)) to indicate the carbon clearance for the blood. Since it was evident that the effect of treatment was maximal on carbon clearance during the first 6 or 12 minutes, K values were obtained only for this time interval. For statistical evaluation, Student's two-tailed t-test was used.

[4] = pretreatment with exogenous somatostatin; cited from earlier work
Kupffer cells and RES [5] = experiment: hepatic uptake of colloidal carbon; format: in vivo, rat; conditions: zymosan 2,500 μg/100 g i.v. twice, 48 and 24 hr before carbon; GdCl3 500 μg/100 g i.v. once, 24 hour before (FIG. 3)
Method: as §1

Row | Compound | effect on adrenal and lung lesions [1] | carbon deposition in liver macrophages (light microscopy) (Kupffer cells) | effect on experimentally induced pancreatitis [2] | colloidal carbon clearance from the blood, dose-response (Kupffer cells and RES [3]; 10 μg i.v. once daily for 4 days (FIG. 1)) | clearing potency order by change in K caused by 100 μg of treatment (ΔK/100 μg) (Kupffer cells and RES [3]) | colloidal carbon clearance from the blood, dose-response (Kupffer cells and RES [3]; doses of 50, 100 or 250 μg i.v. once daily for 4 days (FIG. 1)) | colloidal carbon clearance from the blood (Kupffer cells and RES [3]; female Sprague-Dawley rats, somatostatin i.v. once daily for 4 days vs saline, effect most dramatic during first 6-12 minutes (FIG. 1)) | phagocytic index or K value (Kupffer cells and RES [3]; time-response study, 50 μg i.v., three or four doses (one per day) (FIG. 2)) | cysteamine-induced duodenal ulcer [4] | gastric acid output [4] | carbon clearance from the blood, comparative experiment (Kupffer cells and RES [3]; zymosan 2,500 μg/100 g i.v. twice, 48 and 24 hr before carbon, GdCl3 500 μg/100 g i.v. once, 24 hour before (FIG. 3)) | uptake of the carbon to the liver, comparative experiment (Kupffer cells and RES [5])
1 | somatostatin | beneficial effect | caused numerous macrophages to take up carbons | beneficial effect | less effective than the other doses | somatostatin >zymosan >GdCl3 | very similar results | markedly accelerated | significantly enhanced | prevents | minimal inhibition |  | 
2 | [Cl][Gd]([Cl])[Cl] [GdCl3, gadolinium chloride] |  |  |  |  | somatostatin >zymosan >GdCl3 |  |  |  |  |  | inhibited | inhibited
